Here are results for 14 compounds from US4824863A, “Antibiotic A80438” (Eli Lilly and Company, priority 1985, dated 1989).

Residues, ends and D or L forms follow the SMILES beside them.

The subject of one assay is coccidiosis. Particulars: alone; Science 122, 244 (1955); cited from earlier work.
For assay [1], the system named is Culture A80438 (Streptomyces bobili NRRL 15971). In words: Antibiotic sensitivity discs on seeded ISP No. 2 agar plates. The following applies: sensitivity disc.
Assay [2] deals with A80438 (Streptomyces bobili NRRL 15971). In words: Streptomycin inhibition (taxonomic comparison). Particulars: culture A80438.
In a further assay the test system is S. bobili. Particulars: published descriptions; cited from earlier work.
In assay [3] the test system is Culture A80438 (Streptomyces bobili NRRL 15971). In words: Resistance to lysozyme. Format: cell-based. The procedure:
Resistance to lysozyme was measured by methods recommended by Gordon and Barnett [R. E. Gordon and D. A. Barnett, "Resistance to Rifampin and Lysozyme of Strains of Some Species of Mycobacterium and Nocardia as a Taxonomic Tool", Int. J. Syst. Bacteriol. 27, 176-178 (1977)].

On to `O=C(Nc1ccc([N+](=O)[O-])cc1)Nc1ccc([N+](=O)[O-])cc1` [4,4'-dinitrocarbanilide], for which the Anticoccidial activity result with coccidiosis is “exhibits anticoccidial activity”.

Take `CC[C@H](C)[C@H](N)C1=N[C@H](C(=O)N[C@@H](CC(C)C)C(=O)N[C@H](CCC(=O)O)C(=O)N[C@H](C(=O)N[C@H]2CCCCNC(=O)[C@H](CC(N)=O)NC(=O)[C@@H](CC(=O)O)NC(=O)[C@H](Cc3cnc[nH]3)NC(=O)[C@@H](Cc3ccccc3)NC(=O)[C@H]([C@@H](C)CC)NC(=O)[C@@H](CCCN)NC2=O)[C@@H](C)CC)CS1` [bacitracin] (HELM PEPTIDE1{[CC[C@H](C)[C@H](N)C1=N[C@H](C(=O)[*:2])CS1].L.[dE].I.K.[NCCC[C@@H](N[*:1])C(=O)[*:2]].I.[dF].H.[dD].N}$PEPTIDE1,PEPTIDE1,5:R3-11:R2$$$V2.0): the “Resistance/sensitivity of culture A80438” value in assay [1] (10 units) is on record as “sensitive”.

On to `CC(=O)OCC1=C(C(=O)O)N2C(=O)[C@@H](NC(=O)Cc3cccs3)[C@H]2SC1` [cephalothin], for which, in assay [1] (30 μg), the “Resistance/sensitivity of culture A80438” value is on record as “resistant”.

For the compound `CCC[C@@H]1C[C@@H](C(=O)N[C@@H]([C@H]2O[C@H](SC)[C@H](O)[C@@H](O)[C@H]2O)[C@@H](C)O)N(C)C1` [lincomycin], the “Resistance/sensitivity of culture A80438” value in assay [1] (2 μg) is recorded as “resistant”.

Regarding `CO[C@H]1C[C@H](O[C@H]2[C@H](C)[C@@H](O[C@@H]3O[C@H](C)C[C@H](N(C)C)[C@H]3O)[C@@H](C)C[C@@]3(CO3)C(=O)[C@H](C)[C@@H](O)[C@@H](C)[C@@H](C)OC(=O)[C@@H]2C)O[C@@H](C)[C@@H]1O` [oleandomycin], in assay [1] (15 units), the “Resistance/sensitivity of culture A80438” value is reported as “sensitive”.

On to `CC1(C)S[C@@H]2[C@H](NC(=O)Cc3ccccc3)C(=O)N2[C@H]1C(=O)O` [penicillin G], for which the “Resistance/sensitivity of culture A80438” value in assay [1] (10 units) is on record as “resistant”.

As for `CO[C@H]1/C=C/O[C@@]2(C)Oc3c(C)c(O)c4c(O)c(c(/C=N/N5CCN(C)CC5)c(O)c4c3C2=O)NC(=O)/C(C)=C\C=C\[C@H](C)[C@H](O)[C@@H](C)[C@@H](O)[C@@H](C)[C@H](OC(C)=O)[C@@H]1C` [rifampin], the “Resistance/sensitivity of culture A80438” value in assay [1] (5 μg) is on record as “sensitive”.

`[H]/N=C(/N)N[C@H]1[C@H](O)[C@@H](O)[C@H](O[C@@H]2O[C@@H](C)[C@](O)(C=O)[C@H]2O[C@@H]2O[C@@H](CO)[C@H](O)[C@@H](O)[C@@H]2NC)[C@@H](N/C(N)=N\[H])[C@@H]1O` [streptomycin]: the Streptomycin inhibition result (in assay [2]; in the assay on S. bobili) was “+” each time. Besides, in assay [1] (10 μg), the “Resistance/sensitivity of culture A80438” value is listed as “sensitive”.

With `CN(C)C1C(=O)C(C(N)=O)=C(O)C2(O)C(=O)C3=C(O)c4c(O)cccc4C(C)(O)C3CC12` (stereo not shown) [tetracycline], the “Resistance/sensitivity of culture A80438” value in assay [1] (30 μg) is reported as “sensitive”.

As for `NC[C@H]1O[C@H](O[C@H]2[C@H](O)[C@@H](O[C@H]3O[C@H](CO)[C@@H](O)[C@H](N)[C@H]3O)[C@H](N)C[C@@H]2N)[C@H](N)C[C@@H]1O` [tobramycin], in assay [1] (10 μg), the “Resistance/sensitivity of culture A80438” value is “sensitive”.

With `CN[C@H](CC(C)C)C(=O)N[C@H]1C(=O)N[C@@H](CC(N)=O)C(=O)N[C@H]2C(=O)N[C@H]3C(=O)N[C@H](C(=O)N[C@H](C(=O)O)c4cc(O)cc(O)c4-c4cc3ccc4O)[C@H](O)c3ccc(c(Cl)c3)Oc3cc2cc(c3O[C@@H]2O[C@H](CO)[C@@H](O)[C@H](O)[C@H]2O[C@H]2C[C@](C)(N)[C@H](O)[C@H](C)O2)Oc2ccc(cc2Cl)[C@H]1O` [vancomycin], the “Resistance/sensitivity of culture A80438” value in assay [1] (30 μg) is recorded as “sensitive”.

Regarding gentamicin, in assay [1] (10 μg), the “Resistance/sensitivity of culture A80438” value is on record as “sensitive”.

With lysozyme, the “Resistance/sensitivity of culture A80438 to lysozyme” value in assay [3] is on record as “sensitive”.

Consider neomycin, for which, in assay [1] (30 μg), the “Resistance/sensitivity of culture A80438” value is on record as “sensitive”.
